{
  "source": "patent US5206238A",
  "about": "“Cholecystokinin antagonists” (Merck & Co., Inc., priority 1992, dated 1993)",
  "key": {"DBA2 mice [1]": {"test_system": "DBA2 mice", "test": "black/white exploration test (animal model of anxiety)", "assay_type": "in vivo", "details": "for active dose range: anxiolytic properties in mice", "from_the_text": "The black/white exploration test [Crawley et al. Pharmacology, Biochemistry and Behav. 13, 167 (1980)] is a simple animal model of anxiety. Rodents placed in a two compartment box which consists of a brightly lit, white painted side and a dimly lit, black painted side, display a marked preference for the black side of the apparatus. This behavior is caused by the aversive properties of the brightly lit, white painted section. Classical anxiolytic drugs [such as diazepam, see Crawley, supra] and novel anxiolytic drugs [such as 5HT3 antagonists, see Jones et al. Br. J. Pharm.\nA. Naive male DBA2 mice (25-30) were housed on a reversed light/dark cycle and tested during the dark phase of the cycle under dim red light. The apparatus consisted of an open topped box (40 cm long×27 cm wide×27 cm high) divided into a small area (2/5) and a large area (3/5) by a partition that extended 20 cm above the walls. There was a 7.5×7.5 cm opening in the partition at floor level. The small compartment was painted black and the large compartment white. The floor of each compartment was marked into 9 cm squares. The white compartment was illuminated by a 100 W tungsten bulb 17 cm above the box and the black compartment by a similarly placed 60 W red bulb.\nAnimals that had been injected with drug or vehicle were placed individually into the center of the white area and their behavior observed during a 5 minute period by remote video recording. Four behavioral parameters were recorded every minute: the number of exploratory rears in the white and black sections, the number of line crossings in the black and white sections, the number of transitions between the two sections and the time spent in the black and white sections. Animals were tested in treatment groups of 8-10 and vehicle controls were run on each test day. Data were analysed by ANOVA and Dunnetts test."}, "Sprague Dawley rats [2]": {"test_system": "Sprague Dawley rats", "details": "cited from earlier work"}, "rats": {"test_system": "rats", "test": "direct observation of motoric behaviors in a novel environment (perspex cage)", "assay_type": "in vivo, rat", "details": "0.1 mg/kg, 15 minute period 15 minutes after treatment", "description": "In order to assess further the effect of Compound A on exploration in a novel environment, the motoric hehaviors of rats placed in a perspex cage was recorded by direct observation for a 15 minute period 15 minutes after treatment with Compound A.\nExperimenters (unaware of the treatments the animals had received) recorded the frequency and duration of rearing, sniffing, grooming and cage crossing using a keypad interfaced to a BBC microcomputer."}, "Sprague Dawley rats [3]": {"test_system": "Sprague Dawley rats", "test": "exploratory/locomotor activity in automated activity cages", "assay_type": "in vivo, rat", "description": "B. The effects of CCK-8 and compound A on the exploratory behavior of the rat were examined in automated activity cages and by direct observation. […] [See Crawley, Pharm. Biochem & Behav. 20, 23-27 (1984).]\nMale Sprague Dawley rats were injected ([…].) with CCK-8 and immediately placed in automated activity cages. Activity was measured for 30 minutes past injection.\nMale SD rats were injected (s.c.) with the CCK antagonist compound A (0.0001-10 mg/kg) and immediately placed in the automated activity cages."}, "humans": {"test_system": "humans", "details": "reported studies; cited from earlier work"}, "DBA2 mice [4]": {"test_system": "DBA2 mice", "details": "rodents, literature (Crawley); cited from earlier work"}},
  "data": [
    {"compound": "Cc1cccc(NC(=O)N[C@@H]2N=C(c3ccccc3)c3ccccc3N(C)C2=O)c1", "note": "[Compound B, (R)-N-(2,3-dihydro-1-methyl-2-oxo-5-phenyl-1H-1,4-benzodiazepin-3-yl)-N'-(3-methylphenyl)urea]", "values": [
      {"measurement": "active dose range", "setting": "DBA2 mice [1]", "value": "0.005 to 0.05", "unit": "µg/kg"},
      {"measurement": "difference in time spent in the black and white side", "setting": "DBA2 mice [1]; dose of 0.005 ug/kg, male DBA2 mice", "value": "decreased"},
      {"measurement": "preference for rearing in the black side", "setting": "DBA2 mice [1]; dose of 0.05 ug/kg, male DBA2 mice", "value": "abolished"}
    ]},
    {"compound": "CNC1=Nc2ccc(Cl)cc2C(c2ccccc2)=[N+]([O-])C1", "note": "[chlordiazepoxide]", "values": [
      {"measurement": "spontaneous locomotor activity in a novel environment", "setting": "Sprague Dawley rats [2]; literature (McElroy et al.)", "value": "increases spontaneous locomotor activity"}
    ]},
    {"compound": "CN1C(=O)[C@@H](NC(=O)c2cc3ccccc3[nH]2)N=C(c2ccccc2)c2ccccc21", "note": "[Compound A, 3(S)-(-)-1,3-dihydro-3-(2-indolecarbonylamino)-1-methyl-5-phenyl-2H-1,4-benzodiazepin-2-one]", "values": [
      {"measurement": "cage crossing", "setting": "rats", "value": "significantly increased"},
      {"measurement": "rearing", "setting": "rats", "value": "significantly increased"},
      {"measurement": "sniffing", "setting": "rats", "value": "significantly increased"},
      {"measurement": "habituation and period of exploratory activity", "setting": "Sprague Dawley rats [3]; 0.0001-10 mg/kg s.c.", "value": "delayed habituation and prolonged the period of exploratory activity"},
      {"measurement": "levels of activity at 25 minutes", "setting": "Sprague Dawley rats [3]; 0.1 mg/kg s.c., 25 minutes", "value": "significantly above controls"},
      {"measurement": "effect on activity at 25 minutes", "setting": "Sprague Dawley rats [3]; higher and lower doses than 0.1 mg/kg s.c. (bell-shaped dose response)", "value": "no significant effect"},
      {"measurement": "preference for locomotion (line crossings) in the black side", "setting": "DBA2 mice [1]; 0.5, 5.0 and 500 ug/kg, male DBA2 mice", "value": "abolished"},
      {"measurement": "difference in time spent in the black and white side", "setting": "DBA2 mice [1]; 5.0 and 500 ug/kg, male DBA2 mice", "value": "abolished"},
      {"measurement": "active dose range", "setting": "DBA2 mice [1]", "value": "0.05 to 5.0", "unit": "µg/kg"},
      {"measurement": "preference for rearing in the black side", "setting": "DBA2 mice [1]; doses of 0.05, 0.5, 5.0 and 500 ug/kg, male DBA2 mice", "value": "significantly decreased"}
    ]},
    {"compound": "CCK-4", "values": [
      {"measurement": "induction of panic", "setting": "humans", "value": "induce panic"}
    ]},
    {"compound": "CN1C(=O)CN=C(c2ccccc2)c2cc(Cl)ccc21", "note": "[diazepam]", "values": [
      {"measurement": "preference of the animal for the black dimly lit side", "setting": "DBA2 mice [4]", "value": "decrease the preference"}
    ]},
    {"compound": "CCK-8: carboxylterminal octapeptide of CCK-33, a naturally-occurring neuropeptide and the minimum fully active sequence", "values": [
      {"measurement": "locomotor activity", "setting": "Sprague Dawley rats [3]; 0.5-16 μg/kg i.p., 30 minutes past injection, novel environment", "value": "dose-dependently decreased"},
      {"measurement": "induction of panic", "setting": "humans", "value": "induced gastrointestinal effects but not panic symptoms"},
      {"measurement": "exploratory behavior in a novel environment", "setting": "Sprague Dawley rats [2]; exogenous CCK-8, literature (Crawley)", "value": "decreases exploratory behavior"}
    ]}
  ]
}
